Patent US11213538B2, “Agent for overcoming immunosuppression and use thereof” (GENERAL INCORPORATED ASSOCIATION PHARMA VALLEY PROJECT …, priority 2016, dated 2022)

Legend:
[1] = target: T1, FOXP3 (Homo sapiens, UniProt Q9BZS1); assay: FOXP3 function inhibitory activity, NF-κB luciferase reporter in HEK293/NF-κB-RE/FOXP3 cells with TNF-alpha; type: cell-based; conditions: for Chemiluminescence intensity ratio (HEK293/NF-κB-RE/FOXP3 cells / HEK293/NF-κB-RE cells): DMSO control = 1.0
T1 construct: expressed in transfected cells
T1 sequence (Q9BZS1 1-431): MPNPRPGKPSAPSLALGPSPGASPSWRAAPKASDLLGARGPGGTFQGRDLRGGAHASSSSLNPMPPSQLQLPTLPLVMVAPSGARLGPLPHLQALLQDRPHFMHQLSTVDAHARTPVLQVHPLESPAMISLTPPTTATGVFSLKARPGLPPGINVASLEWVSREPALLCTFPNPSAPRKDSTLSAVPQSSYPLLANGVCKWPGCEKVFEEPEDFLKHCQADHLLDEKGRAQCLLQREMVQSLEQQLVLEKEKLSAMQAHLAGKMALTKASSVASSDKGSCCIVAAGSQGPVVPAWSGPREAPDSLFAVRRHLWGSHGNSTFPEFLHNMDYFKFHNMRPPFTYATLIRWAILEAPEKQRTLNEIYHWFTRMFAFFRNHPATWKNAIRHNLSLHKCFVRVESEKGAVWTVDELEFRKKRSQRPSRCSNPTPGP
Method: Into HEK293/NF-κB-RE cells, pcDNA3.1-FOXP3 (Department of Cancer vaccine therapy/Immuno-gene therapy, Mie University Graduate School of Medicine), which is a FOXP3 gene expression vector, was introduced, and the cells were subjected to a selection through culture in a medium containing 0.5 mg/mL G418 for 3 weeks. The obtained single clone was isolated and established as a stable line. For culture, DMEM containing 10% heat inactivated […], 0.2 mg/mL Hygromycin B, and 0.5 mg/mL G418 was used.
A cell suspension of 1.875×10^5 cells/mL was prepared for HEK293/NF-κB-RE/FOXP3 cells and HEK293/NF-κB-RE cells, respectively, using DMEM with 10% heat inactivated FBS and without phenol red (medium for assay). The cell suspension was seeded into a 96 well white microplate (nunc) at 80 μL/well (1.5×10^4 cells/well) and the cells were cultured overnight under the conditions of 37° C. and 5% CO2.
A DMSO solution of a test drug with a concentration of 1000 times the final concentration was diluted 100 times with the medium for assay to prepare a test drug solution with a concentration of 10 times the final concentration (a 10 times concentration test drug solution). To each well into which the cell suspension was seeded, 10 μL of the 10 times concentration test drug solution was added and treatment was carried out under the conditions of 37° C. and 5% CO2 for an hour (10 μL of a 1% DMSO solution was added to the control at this time).
Recombinant Human TNF-alpha (R&D Systems) was made to 100 μg/mL with 0.1% BSA-containing PBS, and was further diluted with the medium for assay to prepare a 3 ng/mL TNF-alpha solution. To each well described above, 10 μL of the 3 ng/mL TNF-alpha solution was added, and stimulation was performed under the conditions of 37° C. and 5% CO2 for 2.5 hours (the final concentration of TNF-alpha: 0.3 ng/mL).
The culture supernatant was removed, and the cells were washed once with 100 μL of the medium for assay. After adding 100 μL of the medium for assay, 50 μL of Steady-Glo (Promega Corporation) was added. The microplate was shaken for 10 minutes on a plate shaker with the light blocked. After shaking, the chemiluminescence intensity was measured by ARVO Light plate reader (Perkin Elmer). It should be noted that each test was carried out three times. The results obtained by using HEK293/NF-κB-RE/FOXP3 cells are shown in FIG. 1(A) and the results obtained by using HEK293/NF-κB-RE cells are shown in FIG. 1(B).
The FOXP3 inhibitory activity was evaluated in the same method as that in Example 1 except that the test drug was changed to epirubicin, pirarubicin, daunorubicin, doxorubicin, or idarubicin. The final concentration of each test drug was 0.01, 0.03, 0.1, 0.3 or 1 μM (only epirubicin and doxorubicin were tested also at 1 μM, and idarubicin was tested only at 0.01 and 0.03 μM).
Furthermore, the chemiluminescence intensity ratio was calculated by the Formula 1 below. The test was carried out three times. Chemiluminescence intensity ratio=(chemiluminescence intensity measured when HEK293/NF-κB-RE/FOXP3 cells were used)/(chemiluminescence intensity measured when HEK293/NF-κB-RE cells were used) [Formula 1] 3. Results

[2] = tested on: CD4+FOXP3+ and CD4+FOXP3− tumor-infiltrating lymphocytes; assay: IFN-γ positive cells among tumor-infiltrating lymphocytes of CMS5a tumor-bearing mice; type: in vivo, BALB/c mice; conditions: epirubicin 0.1, 0.3, 1 mg/kg intravenously on days 3, 5, 7, TIL collected day 8
Method: CMS5a cells were transplanted under the skin in the posterodorsal region of female BALB/c mice (8 mice per group) on day 0. […] On day 8, the mice were euthanized and tumors were collected. Using gentle MACS dissociator (manufactured by Miltenyi Biotec) in accordance with the instruction manual, tumor-infiltrating lymphocytes (TIL) were separated from the tumors. The collected cells were seeded into a 24 well plate and stimulated with phorbol 12-myristate 13-acetate (PMA) and ionomycin under the condition of 37° C. for an hour, and then cultured with GolgiPlug (BD Biosciences) for 6 hours. After collecting the cells, the cells were stained with PreCP-CyTM5.5 rat anti-mouse CD4 antibody (manufactured by BD Pharmingen) and V500 rat anti-mouse CD8a antibody (manufactured by BD Horizon) under the condition of 4° C. for 15 minutes. The stained cells were fixed with Fixation/Permeabilization Concentrate and Diluent (1:3, manufactured by eBioscience) under the condition of 4° C. overnight. […] The stained cells were analyzed using FACS Canto II flow cytometer (manufactured by Becton Dickinson).

[3] = tested on: mouse regulatory T cells; assay: Overcoming immunosuppressive action of mouse regulatory T cells: growth of CFSE-stained CD8+ T cells co-cultured with epirubicin-treated CD4+CD25+ T lymphocytes; type: cell-based, BALB/c mice; conditions: in the presence of regulatory T cells treated with epirubicin at a low dose not showing cytotoxicity, FIG. 2
Method: Anti-CD3 antibody (1 μg/mL, manufactured by eBioscience) was added to a 12 well flat-bottom plate and the plate was left to stand at 4° C. overnight, and then washed with RPMI 1640 medium. Spleen was isolated from BALB/c mice, and CD4^+CD25^+ T lymphocytes were isolated using a mouse regulatory T cell isolation kit (manufactured by Miltenyi Biotec) and autoMACS separator (manufactured by Miltenyi Biotec). To the 12 well flat-bottom plate coated with anti-CD3 antibody, seven hundred thousand CD4^+CD25^+ T lymphocytes per well were added, and anti-CD28 antibody (manufactured by eBioscience) and IL-2 (NOVARTIS) were added so that the concentrations were 1 μg/mL and 60 IU/mL, respectively. Next, epirubicin was added at various concentrations and the lymphocytes were cultured in an incubator at 37° C. for 48 hours and then washed with a 10% FBS supplemented RPMI 1640 medium.
Anti-CD3 antibody (1 μg/mL, manufactured by eBioscience) was added to a 96 well flat-bottom plate and the plate was left to stand at 4° C. overnight, and then washed with RPMI 1640 medium. […] The lymphocytes were collected and washed with PBS containing 0.5% BSA, and then stained with anti-CD8-APC antibody (manufactured by eBioscience) and analyzed using FACS Canto II flow cytometer (manufactured by Becton Dickinson).

[4] = tested on: HEK293/NF-κB-RE cells; assay: NF-κB luciferase reporter in HEK293/NF-κB-RE cells without FOXP3, with TNF-alpha; type: cell-based, human; conditions: epirubicin 0.003-1 μM, TNF-alpha 0.3 ng/mL, FIG. 1(B)
Source text: Herein, the activity of inhibiting FOXP3 function can be evaluated by preparing HEK293 cells (HEK293/NF-κB-RE cells) into which a luciferase reporter vector has been stably introduced and cells (HEK293/NF-κB-RE/FOXP3 cells) obtained by stably introducing the FOXP3 gene into the HEK293/NF-κB-RE cells, adding a test drug and TNF-alpha (TNF-α) thereto, followed by culture, and measuring a difference in chemiluminescence intensity in each cell group.
Into a human embryonic kidney-derived cell line HEK293 (RIKEN CELL BANK), pGL4.32 [luc2P/NF-κB-RE/Hygro] (Promega Corporation), which is a luciferase reporter vector, was introduced, and the cells were subjected to a selection through culture in a medium containing 0.2 mg/mL Hygromycin B for 3 weeks. The obtained single clone was isolated and established as a stable line. For culture, DMEM (Dulbecco's Modified Eagle's Medium) containing 10% heat inactivated FBS and 0.2 mg/mL Hygromycin B was used.
A cell suspension of 1.875×10^5 cells/mL was prepared for HEK293/NF-κB-RE/FOXP3 cells and HEK293/NF-κB-RE cells, respectively, using DMEM with 10% heat inactivated FBS and without phenol red (medium for assay). […]
The culture supernatant was removed, and the cells were washed once with 100 μL of the medium for assay. […] After shaking, the chemiluminescence intensity was measured by ARVO Light plate reader (Perkin Elmer). […]

[5] = test drug concentration 0.01 (μM)
[6] = test drug concentration 0.03 (μM)
[7] = test drug concentration 0.1 (μM)
[8] = test drug concentration 0.3 (μM)

Structure (SMILES) | Chemiluminescence intensity ratio (HEK293/NF-κB-RE/FOXP3 cells / HEK293/NF-κB-RE cells) [1, 5] | Chemiluminescence intensity ratio (HEK293/NF-κB-RE/FOXP3 cells / HEK293/NF-κB-RE cells) [1, 6] | Chemiluminescence intensity ratio (HEK293/NF-κB-RE/FOXP3 cells / HEK293/NF-κB-RE cells) [1, 7] | Chemiluminescence intensity ratio (HEK293/NF-κB-RE/FOXP3 cells / HEK293/NF-κB-RE cells) [1, 8] | Chemiluminescence intensity ratio (HEK293/NF-κB-RE/FOXP3 cells / HEK293/NF-κB-RE cells) ([1]; test drug concentration 1 (μM)) | proportion of IFN-γ positive cells to CD4+FOXP3+ cells ([2]; FIG. 3(A)) | proportion of IFN-γ positive cells to CD4+FOXP3− cells ([2]; FIG. 3(B)) | growth rate of CD8+ T cells [3] | chemiluminescence intensity [4] | FOXP3 inhibitory activity (Example 2, in words) ([1]; 0.01-1 μM, Table 2) | inhibition of FOXP3 function (conclusion of Example 1) ([1]; FOXP3 cells compared with cells without FOXP3) | chemiluminescence intensity compared to control ([1]; HEK293/NF-κB-RE/FOXP3 cells, 0.1 μM) | chemiluminescence intensity compared to control ([1]; HEK293/NF-κB-RE/FOXP3 cells, 0.3 or 1 μM) | chemiluminescence intensity ([1]; HEK293/NF-κB-RE/FOXP3 cells, epirubicin 0.003-1 μM, TNF-alpha 0.3 ng/mL, FIG. 1(A))
COc1cccc2c1C(=O)c1c(O)c3c(c(O)c1C2=O)C[C@@](O)(C(=O)CO)C[C@@H]3O[C@H]1C[C@H](N)[C@H](O[C@@H]2CCCCO2)[C@H](C)O1 [Pirarubicin, pirarubicin] | 1.03 | 1.08 | 1.53 | 1.50 | – | – | – | – | – | – | – | – | – | –
COc1cccc2c1C(=O)c1c(O)c3c(c(O)c1C2=O)C[C@@](O)(C(=O)CO)C[C@@H]3O[C@H]1C[C@H](N)[C@H](O)[C@H](C)O1 [Doxorubicin, doxorubicin] | 0.97 | 1.08 | 1.14 | 1.29 | 1.38 | – | – | – | – | – | – | – | – | –
COc1cccc2c1C(=O)c1c(O)c3c(c(O)c1C2=O)C[C@@](O)(C(=O)CO)C[C@@H]3O[C@H]1C[C@H](N)[C@@H](O)[C@H](C)O1 [Epirubicin, epirubicin] | 1.29 | 1.39 | 1.42 | 1.62 | 2.37 | increased in a concentration-dependent manner | did not vary | increased in a concentration-dependent manner | concentration-dependent changes were not observed | increased in a concentration-dependent manner | selectively inhibited FOXP3 function | significantly high as compared to that in the control at P<0.05 | significantly high as compared to that in the control at P<0.01 | increased in an epirubicin concentration-dependent manner
COc1cccc2c1C(=O)c1c(O)c3c(c(O)c1C2=O)C[C@@](O)(C(C)=O)C[C@@H]3O[C@H]1C[C@H](N)[C@H](O)[C@H](C)O1 [Daunorubicin, daunorubicin] | 1.09 | 1.12 | 1.82 | 2.07 | – | – | – | – | – | – | – | – | – | –
CC(=O)[C@]1(O)Cc2c(O)c3c(c(O)c2[C@@H](O[C@H]2C[C@H](N)[C@H](O)[C@H](C)O2)C1)C(=O)c1ccccc1C3=O [Idarubicin, idarubicin] | 1.02 | 1.21 | – | – | – | – | – | – | – | – | – | – | – | –
